Data on 25 molecules can be found in patent US8551984B2, “Aminopyrimidines as SYK inhibitors” (Merck Sharp & Dohme Corp., priority 2009, dated 2013).

This assay deals with recombinant human SYK (GST-hSYK fusion protein) (Homo sapiens, UniProt P43405). Briefly: biochemical.
Where [1] appears, read: rhSYK Activity (IC50), recombinant human GST-SYK 5 pM, ATP 25 μM, biotinylated substrate peptide 250 nM, HTRF, 10-dose titration.
[2] abbreviates: Syk IC50, HTRF, recombinant human GST-SYK.

pIC50: −log10 of the molar value. A value given as a limit tells only on which side of the number the result lay.

Source text: Homogeneous Time-Resolved Fluorescence (HTRF) Assay for the Recombinant Human SYK Enzyme:

Turning to `Cc1cc(Nc2nccc(C(F)C3CC3)n2)cc(-c2cnc(C3(O)CCC(C(=O)O)C(C)(C)C3)s2)c1` (single isomer, unassigned) [Example 100A-21], under setting [1], the pIC50 (usually the IC50 on a negative log10 scale, so that one unit is a factor of ten) is more than 7.00. With `Cc1cc(Nc2nccc(C(C)(O)C3CC3)n2)cc(-c2cnc(C3(O)CCC(C(=O)O)C(C)(C)C3)s2)c1` (single isomer, unassigned) [Example 100A-25], the pIC50 under setting [1] is more than 7.00. As to `Cc1cc(Nc2nccc(C(F)(F)F)n2)cc(-c2cnc(C3(O)CCNC(=O)CC3)s2)c1Br` (single isomer, unassigned) [Example 111-1], the pIC50 under setting [1] was 6.00 to 7.00. In the case of `Cc1cc(Nc2nccc(C(F)(F)F)n2)cc(-c2cnc(C3(O)CCNC(=O)CC3)s2)c1Br` (single isomer, unassigned) [Example 111-2], the pIC50 under setting [1] was more than 7.00.

As to `Cc1cc(Nc2nccc(C(F)(F)F)n2)cc(-c2cnc(C(C)(O)c3ccc(C(=O)O)cc3)s2)c1` (stereo not shown) [4-{1-hydroxy-1-[5-(3-methyl-5-{[4-(trifluoromethyl)pyrimidin-2-yl]amino}phenyl)-1,3-thiazol-2-yl]ethyl}benzoic acid], the pIC50 under setting [2] was more than 9.30. Still for that read-out and setting: then `Cc1cc(Nc2nccc(C(F)(F)F)n2)cc(-c2cnc(C3(O)CC4(CC(C(=O)O)C4)C3)s2)c1` (stereo not shown) [6-hydroxy-6-[5-(3-methyl-5-{[4-(trifluoromethyl)pyrimidin-2-yl]amino}phenyl)-1,3-thiazol-2-yl]spiro[3.3]heptane-2-carboxylic], with 8.70.

As to `Cc1cc(Nc2ncc(F)c(C)n2)cc(-c2cnc([C@]3(O)CC[C@@H](O)CC3)s2)c1` [8A-1], the pIC50 (rhSYK Activity, Table 8A) was more than 7.00.

As for `Cc1cc(Nc2ncc(Cl)c(C)n2)cc(-c2cnc([C@]3(O)CC[C@@H](O)CC3)s2)c1` [8A-2], for the setting “rhSYK Activity, Table 8A”, the pIC50 was more than 7.00. On the same count and under the same terms, then `COc1nc(Nc2cc(C)cc(-c3cnc([C@]4(O)CC[C@@H](O)CC4)s3)c2)ncc1F` [8A-3], with more than 7.00; and `Cc1cc(Nc2ncc(F)c(C3CC3)n2)cc(-c2cnc([C@]3(O)CC[C@@H](O)CC3)s2)c1` [8A-4], with more than 7.00. On the same count and under the same terms, next, `COc1nc(Nc2cc(C)cc(-c3cnc(C4(O)CCC(O)CC4)s3)c2)ncc1Cl` (stereo not shown) [8A-5]: more than 7.00; `Cc1cc(Nc2nccc(C(F)(F)F)n2)cc(-c2cnc(C3(O)CCC(O)C(C)(C)C3)s2)c1` (stereo not shown) [8A-6]: more than 7.00. Same read-out and setting: then `Cc1cc(Nc2ncc(F)c(C)n2)cc(-c2cnc(C3(O)CCC(=O)CC3)s2)c1` [8A-8], with more than 7.00. Turning to `NC(=O)[C@H]1CC[C@H](c2ncc(-c3cccc(Nc4nccc(C(F)(F)F)n4)c3)s2)CC1` [23-1], the pIC50 (hSYK Activity, table of Example 23-1) is more than 7.00. With `CC(O)c1ncc(-c2cc(Nc3nccc(C(F)(F)F)n3)cc(N3CCOCC3)c2)s1` (stereo not shown) [24-1], for the setting “rhSYK Activity, Table 24”, the negative-log IC50 (pIC50) was more than 7.00. On the same count and under the same terms, then `CC(=O)c1ncc(-c2cc(Nc3nccc(C(F)(F)F)n3)cc(N3CCOCC3)c2)s1` [24-3], with more than 7.00. On the same count and under the same terms, then `CS(=O)(=O)N1CCN(c2cc(Nc3nccc(C(F)(F)F)n3)cc(-c3cnc(C4(O)CCC4)s3)c2)CC1` [24-4], with more than 7.00; and `CC(O)(c1ncc(-c2cc(Nc3nccc(C(F)(F)F)n3)cc(N3CCOCC3)c2)s1)C1CC1` (stereo not shown) [24-6], with more than 7.00.

As for `CC(O)(c1ncc(-c2cc(Nc3nccc(C(F)(F)F)n3)cc(N3CCOCC3)c2)s1)C(F)(F)F` (stereo not shown) [24-7], where the note is “rhSYK Activity, Table 24”, the pIC50 is more than 7.00. Regarding `FC(F)(F)c1ccnc(Nc2cccc(-c3cnc(C4(F)CCC4)s3)c2)n1` [26-3], for the setting “rhSYK Activity, Table 26”, the negative-log IC50 (pIC50) is 6.00 to 7.00. In the case of `CC(C)(O)c1ncc(-c2cc(Nc3nccc(C(F)(F)F)n3)cc(C(F)F)c2)s1` [28-1], the pIC50 (hSYK Activity, table of Example 28-1) is more than 7.00. Consider `Cc1cc(Nc2nccc(C(F)(F)F)n2)cc(-c2cnc(C3(O)CCNC(C(F)(F)F)C3)s2)c1` (stereo not shown) [46-1], for which the pIC50 (rhSYK Activity, Table 46) was more than 7.00. On the same count and under the same terms, next, `COC(=O)C1CC(O)(c2ncc(-c3cc(C)cc(Nc4nccc(C(F)(F)F)n4)c3)s2)CCN1` (stereo not shown) [46-2]: more than 7.00.

Regarding `Cc1cc(Nc2nccc(C(F)(F)F)n2)cc(-c2cnc(C3(O)CCN(C(N)=O)C3)s2)c1` (stereo not shown) [54B-2], the pIC50 (rhSYK Activity, Table 54B) is more than 7.00. Same read-out and setting: then `Cc1cc(Nc2nccc(C(F)(F)F)n2)cc(-c2cnc(C3(O)CCN(C(=O)OC(C)(C)C)C3)s2)c1` (stereo not shown) [54B-4], with 6.00 to 7.00.
